Laboratory results as given in patent US8222414B2, “Indole compounds as an inhibitor of cellular necrosis” (LG Life Sciences Ltd., priority 2007, dated 2012).

Each molecule was assayed on primary hepatocytes isolated from rats (assay: Cell protective effects against doxorubicin in hepatocytes (WST-1 cell viability)). Details: Hepatocyte; primary rat hepatocytes pretreated with compound for 30 min, then doxorubicin; viability by WST-1 after 24-48 h.
Format: cell-based
Protocol: Various endogenous/exogenous attacks on the cells trigger the mechanisms of cell death which is broadly classified into two types, i.e. apoptosis or necrosis. Using these cell death mechanisms, in the present experimental example, primacy hepatocytes isolated from rats were treated with drugs which were clinically shown to result in serious side-effects of hepatocyte toxicity or various chemicals which derive cell death, and the compounds synthesized in the Examples were estimated for their hepatocyte protective effects, after 24-48 h. The substances used to derive hepatocyte death include CCl4, ActD, H2O2, doxorubicin, anti-Fas Ab/Actinomycin D, acetaminophen, EtOH, CdCl2, palmitate, stearate, cyclophosphamide, terfenadine, diclofenac, simvastatin, and adefovir. Primary hepatocytes were isolated using the method of Seglen P O (Experimental Cell Research 74 (1972) pp 450-454). Briefly, hepatocytes were isolated according to the two-step collagenase perfusion method, and dead cells were removed by low speed (500 rpm) centrifugation for 10 min using percoll gradient (Kreamer B L etc, In Vitro Cellular & Developmental Biology 22 (1986) pp 201-211). During this step, the viability of cells was maintained 90% or above. The cells were suspended in HepatoZYME media (Gibco BRL), and the number of cells was counted. 1.5×10^4 cells in 100 μl were placed into the collagen-coated 96-well plate (BD biocoat), and adhered on the bottom for 3-4 h.
In order to assess the hepatocyte protective effect, above adhered cells were pretreated with the Example compounds for 30 min. At this time, the concentration of the Example compounds were serially diluted by 2-fold or 3-fold over 5 steps starting from 30 uM, 10 uM or 1 uM depending on the experiments, and the final concentration of DMSO was adjusted to 0.2%. 30 min after the treatment by compounds, cells were treated by the substances deriving hepatocyte death or hepatotoxic drugs at the concentrations indicated in Table 1. After 24-48 h, the viability of cells was determined to estimate the hepatocyte protective effects. The viability of cells was determined using WST-1 (MK-400, […]) method by the absorbance at 440 nm. Hepatocyte protective effects of the Example compounds were represented by “EC50” which was calculated from measured values. “EC50” herein means the concentration of the compound at which 50% of maximum protective effect is observed in the experiment.
`Cc1cc(NC2CCCC2)c2[nH]c(C3=N[C@@H](CC(=O)O)CS3)cc2c1` [Example 26, [(S)-2-(5-methyl-7-cyclopentylamino-1H-indol-2-yl)-4,5-dihydro-thiazol-4-yl]-acetic acid] was tested, and the EC50 was 200 nM.
In the case of `N[C@H]1CCN(CC[C@@H]2CSC(c3cc4cc(Cl)cc(NC5CCCC5)c4[nH]3)=N2)C1` [Example 176, {2-[(R)-4-((S)-3-amino-pyrrolidin-1-ylethyl)-4,5-dihydro-thiazol-2-yl]-5-chloro-1H-indol-7-yl}-cyclopentyl-amine], the EC50 is reported as > 1000 nM.
In the case of `CC(C)CN(CC(C)C)c1cc(Oc2ccccc2)cc2cc(C3=N[C@@H](CCN4CCCC4)CS3)[nH]c12` [Example 228, (5-Phenoxy-2-{(S)-4-[(pyrrolidin-1-yl)-ethyl]-4,5-dihydro-thiazol-2-yl}-1H-indol-7-yl)-diisobutyl-amine], the EC50 is reported as 130 nM.
In the case of `Cc1cc(NC2CCOCC2)c2[nH]c(C3=N[C@H](CC(=O)O)CS3)cc2c1` [Example 93, [(R)-2-(5-methyl-7-(tetrahydropyran-4-yl)amino-1H-indol-2-yl)-4,5-dihydro-thiazol-4-yl]-acetic acid], the EC50 is reported as 550 nM.
Molecule `Cc1cc(NC2CCOC2)c2[nH]c(C3=N[C@@H](CC(=O)O)CS3)cc2c1` (stereo partly drawn) [Example 20, [(S)-2-(5-methyl-7-(tetrahydrofuran-3-yl)amino-1H-indol-2-yl)-4,5-dihydro-thiazol-4-yl]-acetic acid] has an EC50 of 5770 nM.
`Cc1cc(NCC2CCOCC2)c2[nH]c(C3=N[C@@H](CCN4CCCC4C(N)=O)CS3)cc2c1` (stereo partly drawn) [Example 240, (5-Methyl-2-{(S)-4-[2-(aminocarbonyl)pyrrolidin-1-yl-ethyl]-4,5-dihydro-thiazol-2-yl}-1H-indol-7-yl)-(tetrahydropyran-4-yl)methyl-amine] was tested, and the EC50 was 280 nM.
`CCOc1cc(NC2CCCC2)c2[nH]c(C3=N[C@H](CC(=O)O)CS3)cc2c1` [Example 83, [(R)-2-(5-ethoxy-7-cyclopentylamino-1H-indol-2-yl)-4,5-dihydro-thiazol-4-yl]-acetic acid] was tested, and the EC50 was 600 nM.
For `c1cc(NC2CCCC2)c2[nH]c(C3=N[C@H](CN4CCCC4)CS3)cc2c1` [Example 158, Cyclopentyl-[2-((R)-4-pyrrolidin-1-ylmethyl-4,5-dihydro-thiazol-2-yl)-1H-indol-7-yl]-amine], the EC50 was 910 nM.
`N[C@H]1CCN(CC[C@H]2CSC(c3cc4cc(Oc5ccccc5)cc(NC5CCCC5)c4[nH]3)=N2)C1` [Example 238, (5-Phenoxy-2-{(S)-4-[(3S)-3-(amino)pyrrolidin-1-yl-ethyl]-4,5-dihydro-thiazol-2-yl}-1H-indol-7-yl)-cyclopentyl-amine] showed an EC50 of 330 nM.
With `Clc1cc(NC2CCOCC2)c2[nH]c(C3=N[C@H](CCN4CCNCC4)CS3)cc2c1` [Example 193, (5-Chloro-2-{(R)-4-[(piperazin-1-yl)-ethyl]-4,5-dihydro-thiazol-2-yl}-1H-indol-7-yl)-(tetrahydro-pyran-4-yl)-amine] the EC50 was 650 nM.
`Cc1cc(NC2CCOCC2)c2[nH]c(C3=N[C@@H](CCN4CCOCC4)CS3)cc2c1` [Example 184, (5-Methyl-2-{(S)-4-[(morpholin-4-yl)-ethyl]-4,5-dihydro-thiazol-2-yl}-1H-indol-7-yl)-(tetrahydro-pyran-4-yl)-amine] gave an EC50 of 180 nM.
`CC1CSC(c2cc3cccc(NC4CCOCC4)c3[nH]2)=N1` (centres unmarked) [Example 32, (Tetrahydropyran-4-yl)-[2-(4,5-dihydro-4-methyl-thiazol-2-yl)-1H-indol-7-yl]-amine] gave an EC50 of 2120 nM.
Work on `OC[C@@H]1CSC(c2cc3cccc(NC4CCOC4)c3[nH]2)=N1` (stereo partly drawn) [Example 52, [(R)-2-(7-(tetrahydrofuran-3-yl)amino-1H-indol-2-yl)-4,5-dihydro-thiazol-4-yl]-methanol] yielded an EC50 of 750 nM.
`COC(=O)c1csc(-c2cc3cccc(NC4CCCC4)c3[nH]2)n1` [Example 134, [2-(7-Cyclopentylamino-1H-indol-2-yl)-thiazol-4-yl]-carboxylic acid methyl ester] was tested, and the EC50 was 510 nM.
In the case of `COC(=O)C[C@@H]1CSC(c2cc3cc(CN4CCCC4)cc(NC4CCCC4)c3[nH]2)=N1` [Example 40, [(R)-2-(5-(pyrrolidin-1-yl)methyl-7-cyclopentylamino-1H-indol-2-yl)-4,5-dihydro-thiazol-4-yl]-acetic acid methyl ester], the EC50 is reported as 15600 nM.
`OC[C@@H]1CSC(c2cc3cc(Oc4cccnc4)cc(NC4CCOCC4)c3[nH]2)=N1` [Example 62, [(R)-2-(5-(pyridin-3-yl)oxy-7-(tetrahydropyran-4-yl)amino-1H-indol-2-yl)-4,5-dihydro-thiazol-4-yl]-methanol] was tested, and the EC50 was 3770 nM.
In the case of `CC(=O)Nc1cc(NC2CCCC2)c2[nH]c(C3=N[C@H](CO)CS3)cc2c1` [Example 38, [(R)-2-(5-acetylamino-7-cyclopentylamino-1H-indol-2-yl)-4,5-dihydro-thiazol-4-yl]-methanol], the EC50 is reported as 2000 nM.
In the case of `O=C(O)C[C@H]1CSC(c2cc3cc(Oc4ccccc4)cc(NC4CCOCC4)c3[nH]2)=N1` [Example 16, [(S)-2-(5-phenoxy-7-(tetrahydropyran-4-yl)amino-1H-indol-2-yl)-4,5-dihydro-thiazol-4-yl]-acetic acid], the EC50 is reported as 1290 nM.
`CN(C)c1cccc(CC[C@H]2CSC(c3cc4cc(Cl)cc(NC5CCCC5)c4[nH]3)=N2)c1` [Example 177, (5-Chloro-2-{(S)-4-[2-(3-dimethylamino-phenyl)-ethyl]-4,5-dihydro-thiazol-2-yl}-1H-indol-7-yl)-cyclopentyl-amine] was tested, and the EC50 was > 1000 nM.
`O=C(O)C[C@@H]1CSC(c2cc3cc(Br)cc(NC4CCCC4)c3[nH]2)=N1` [Example 68, [(R)-2-(5-bromo-7-cyclopentylamino-1H-indol-2-yl)-4,5-dihydro-thiazol-4-yl]-acetic acid] was tested, and the EC50 was 490 nM.
`O=C(O)C[C@H]1CSC(c2cc3cc(Oc4ccccc4)cc(NC4CCCC4)c3[nH]2)=N1` [Example 50, [(S)-2-(5-phenoxy-7-cyclopentylamino-1H-indol-2-yl)-4,5-dihydro-thiazol-4-yl]-acetic acid] showed an EC50 of 250 nM.
With `Cc1cc(NC2CCC(=O)CC2)c2[nH]c(C3=N[C@H](CC(=O)O)CS3)cc2c1` [Example 135, {(R)-2-[5-methyl-7-(4-oxo-cyclohexylamino)-1H-indol-2-yl]-4,5-dihydro-thiazol-4-yl}acetic acid] the EC50 was 1260 nM.
`O=C(O)C[C@H]1CSC(c2cc3cccc(NCC4CCOCC4)c3[nH]2)=N1` [Example 12, [(S)-2-(7-(tetrahydropyran-4-yl)methylamino-1H-indol-2-yl)-4,5-dihydro-thiazol-4-yl]-acetic acid] was tested, and the EC50 was 3250 nM.
For `O=C(O)CC[C@@H]1CSC(c2cc3cc(OC(F)(F)F)cc(NC4CCCC4)c3[nH]2)=N1` [Example 117, 3-[(R)-2-(5-trifluoromethoxy-7-cyclopentylamino-1H-indol-2-yl)-4,5-dihydro-thiazol-4-yl]-propionic acid], the EC50 was < 500 nM.

Same assay, conditions: primary rat hepatocytes pretreated with compound for 30 min, then doxorubicin; viability by WST-1 after 24-48 h
With `CC(C)(C)OC(=O)N1CCN(CC[C@H]2CSC(c3cc4cc(Oc5ccccc5)cc(NC5CCCC5)c4[nH]3)=N2)CC1` [Example 231, t-Butyl-(4-{2-[(S)-2-(5-phenoxy-7-cyclopentylamino)-1H-indol-2-yl)-4,5-dihydro-thiazol-4-yl]-ethyl}-piperazine-1-carboxylate] the EC50 was 200 nM.
In the case of `OCC[C@@H]1CSC(c2cc3cc(Cl)cc(NC4CCOCC4)c3[nH]2)=N1` [Example 67, [(R)-2-(5-chloro-7-(tetrahydropyran-4-yl)amino-1H-indol-2-yl)-4,5-dihydro-thiazol-4-yl]-ethanol], the EC50 is reported as > 1000 nM.
